Reference: patent US20080161320A1, “FUSED BICYCLIC PYRIMIDINES AS PTK INHIBITORS CONTAINING A ZINC BINDING MOIETY” (priority 2006, published 2008)

Tests used:
HDAC = HDAC fluorimetric assay kit (AK-500, Biomol), HeLa nuclear extract; assay type: biochemical
Description: HDAC inhibitors were screened using an HDAC fluorimetric assay kit (AK-500, Biomol, Plymouth Meeting, Pa.). […] Each assay was setup as follows: Defrosted all kit components and kept on ice until use. […] Prepared dilutions of Trichostatin A (TSA, positive control) and tested compounds in assay buffer (5× of final concentration). Diluted Fluor de Lys™ Substrate in assay buffer to 100 uM (50 fold=2× final). Diluted Fluor de Lys™ developer concentrate 20-fold (e.g. 50 μl plus 950 μl Assay Buffer) in cold assay buffer. Second, diluted the 0.2 mM Trichostatin A 100-fold in the 1× Developer (e.g. 10 μl in 1 ml; final Trichostatin A concentration in the 1× Developer=2 μM; final concentration after addition to HDAC/Substrate reaction=1 μM). Added Assay buffer, diluted trichostatin A or test inhibitor to appropriate wells of the microtiter plate. Added diluted HeLa extract or other HDAC sample to all wells except for negative controls.

human EGFR = molecular target: T1, human EGFR (Homo sapiens, UniProt P00533); assay: HTScan Receptor Kinase Assay, EGFR; assay type: biochemical
T1 construct: human EGFR (His672-Ala1210); GST (N); purchased Cell Signaling Technologies; host or cells: baculovirus expression system
T1 sequence (P00533 672-1210): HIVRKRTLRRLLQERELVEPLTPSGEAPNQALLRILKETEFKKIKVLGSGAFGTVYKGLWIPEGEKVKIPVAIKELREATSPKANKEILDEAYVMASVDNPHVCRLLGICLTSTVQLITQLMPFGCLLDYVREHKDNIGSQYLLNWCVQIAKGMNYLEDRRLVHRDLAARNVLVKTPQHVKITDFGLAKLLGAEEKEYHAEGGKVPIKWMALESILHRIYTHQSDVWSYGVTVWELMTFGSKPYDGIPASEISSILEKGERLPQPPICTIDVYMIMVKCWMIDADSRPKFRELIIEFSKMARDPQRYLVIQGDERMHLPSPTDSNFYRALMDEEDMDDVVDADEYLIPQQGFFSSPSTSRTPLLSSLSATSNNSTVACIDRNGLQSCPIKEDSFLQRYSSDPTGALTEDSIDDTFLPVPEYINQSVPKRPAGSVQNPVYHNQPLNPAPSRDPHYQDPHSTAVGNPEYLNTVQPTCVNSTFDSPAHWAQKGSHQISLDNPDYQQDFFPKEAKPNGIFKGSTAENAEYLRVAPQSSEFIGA

human VEGFR2 = human VEGFR2 (Homo sapiens, UniProt P35968); assay: HTScan Receptor Kinase Assay, VEGFR2;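 note: recombinant GST-His-tagged human VEGFR2 kinase domain phosphorylating biotinylated gastrin precursor peptide, 30 min at room temperature, phosphotyrosine detected by Europium-labelled antibody time-resolved fluorescence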
human VEGFR2, sequence (P35968 807-1356 limits assumed): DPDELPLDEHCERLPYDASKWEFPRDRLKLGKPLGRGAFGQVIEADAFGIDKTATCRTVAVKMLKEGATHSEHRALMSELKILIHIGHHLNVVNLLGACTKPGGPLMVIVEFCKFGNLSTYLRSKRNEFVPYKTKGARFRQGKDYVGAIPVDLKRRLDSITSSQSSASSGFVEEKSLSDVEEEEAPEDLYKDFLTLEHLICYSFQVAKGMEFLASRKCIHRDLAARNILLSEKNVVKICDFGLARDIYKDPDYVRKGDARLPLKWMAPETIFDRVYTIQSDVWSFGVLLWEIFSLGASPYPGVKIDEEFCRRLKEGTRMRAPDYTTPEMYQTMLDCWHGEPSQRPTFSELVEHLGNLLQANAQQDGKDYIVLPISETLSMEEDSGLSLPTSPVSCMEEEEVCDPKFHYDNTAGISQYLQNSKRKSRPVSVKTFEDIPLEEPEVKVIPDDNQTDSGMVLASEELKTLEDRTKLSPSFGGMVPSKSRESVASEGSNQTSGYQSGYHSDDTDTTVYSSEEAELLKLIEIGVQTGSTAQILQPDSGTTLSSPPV
Description: (§1) The ability of compounds to inhibit receptor kinase (EGFR, HER2/ErbB2, and VEGFR2) activity was assayed using HTScan™ Receptor Kinase Assay Kits (Cell Signaling Technologies, Danvers, Mass.). […] VEGFR2 tyrosine kinase was produced using a baculovirus expression system from a construct containing a human VEGFR2 cDNA kinase domain (Asp805-Val1356) (GenBank accession No. AF035121) fragment amino-terminally fused to a GST-HIS6-Thrombin cleavage site. The proteins were purified by one-step affinity chromatography using glutathione-agarose. An anti-phosphotyrosine monoclonal antibody, P-Tyr-100, was used to detect phosphorylation of biotinylated substrate peptides (EGFR, Biotin-PTP1B (Tyr66); HER2/ErbB2, Biotinylated FLT3 (Tyr589); VEGFR2, Biotin-Gastrin Precursor (Tyr87).). […] Fluorescence was measured on a WALLAC Victor 2 plate reader and reported as relative fluorescence units (RFU). Data were plotted using GraphPad Prism (v4.0a) and IC50's calculated using a sigmoidal dose response curve fitting algorithm.
(§2) Each assay was setup as follows: Added 100 μl of 10 mM ATP to 1.25 ml 6 mM substrate peptide. Diluted the mixture with dH20 to 2.5 ml to make 2×ATP/substrate cocktail ([ATP]=400 mM, [substrate]=3 mM). Immediately transfer enzyme from −80° C. to ice. Allowed enzyme to thaw on ice. Microcentrifuged briefly at 4° C. to bring liquid to the bottom of the vial. Returned immediately to ice. […] Transfer 1.25 ml of DTT/Kinase buffer to enzyme tube to make 4× reaction cocktail ([enzyme]=4 ng/μL in 4× reaction cocktail). […] Incubated reaction plate at room temperature for 30 minutes. Added 50 μl/well Stop Buffer (50 mM EDTA, pH 8) to stop the reaction. Transferred 25 μl of each reaction and 75 μl dH2O/well to a 96-well streptavidin-coated plate and incubated at room temperature for 60 minutes. Washed three times with 200 μl/well PBS/T (PBS, 0.05% Tween-20). […] Added 100 μl/well primary antibody. Incubated at room temperature for 60 minutes. Washed three times with 200 μl/well PBS/T. Diluted Europium labeled anti-mouse IgG 1:500 in PBS/T with 1% BSA. Added 100 μl/well diluted antibody. Incubated at room temperature for 30 minutes. Washed five times with 200 μl/well PBS/T. Added 100 μl/well DELFIA® Enhancement Solution. Incubated at room temperature for 5 minutes.

human HER2/ErbB2 = human HER2/ErbB2 (Homo sapiens, UniProt P04626); assay: HTScan Receptor Kinase Assay, HER2/ErbB2;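 note: europium time-resolved fluorescence detection of anti-phosphotyrosine antibody binding to biotinylated FLT3 (Tyr589) peptide phosphorylated by the kinase, 30 min reaction at room temperature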
human HER2/ErbB2, sequence (P04626 676-1255): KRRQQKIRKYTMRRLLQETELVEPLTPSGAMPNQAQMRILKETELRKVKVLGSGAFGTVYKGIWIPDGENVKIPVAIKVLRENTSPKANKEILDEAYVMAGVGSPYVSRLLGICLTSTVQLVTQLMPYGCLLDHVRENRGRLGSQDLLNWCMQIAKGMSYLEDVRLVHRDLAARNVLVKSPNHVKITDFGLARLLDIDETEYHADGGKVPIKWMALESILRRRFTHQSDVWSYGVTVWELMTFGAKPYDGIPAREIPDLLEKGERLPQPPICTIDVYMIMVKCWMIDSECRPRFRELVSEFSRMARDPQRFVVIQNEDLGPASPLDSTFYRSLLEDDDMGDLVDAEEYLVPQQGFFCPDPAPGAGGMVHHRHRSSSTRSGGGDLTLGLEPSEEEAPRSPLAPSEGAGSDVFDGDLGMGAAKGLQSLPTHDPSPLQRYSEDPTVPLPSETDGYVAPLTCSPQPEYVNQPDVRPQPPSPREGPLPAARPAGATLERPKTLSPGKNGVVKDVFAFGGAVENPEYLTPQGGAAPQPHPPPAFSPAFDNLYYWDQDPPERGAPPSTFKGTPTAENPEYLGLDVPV
Description: as §1, §2

| Compound | IC50 (HDAC) [nM] | IC50 (human EGFR) [nM] | melting point [°C] | IC50 (human VEGFR2) [nM] | IC50 (human HER2/ErbB2) [nM] |
| --- | --- | --- | --- | --- | --- |
| C[C@@H](Nc1ncnc2[nH]c(-c3ccc(OCC(=O)NO)cc3)cc12)c1ccccc1 [Compound 17, (R)—N-hydroxy-2-(4-(4-(1-phenylethylamino)-7H-pyrrolo[2,3-d]pyrimidin-6-yl)phenoxy)acetamide] | < 100 | < 100 | 116.8 to 126.8 | 1000 to 10000 | < 100 |
| C[C@@H](Nc1ncnc2[nH]c(-c3ccc(NC(=O)CCCC(=O)NO)cc3)cc12)c1ccccc1 [Compound 25, (R)—N^1-Hydroxy-N^5-(4-(4-(1-phenylethylamino)-7H-pyrrolo[2,3-d]pyrimidin-6-yl)phenyl)glutaramide] | 100 to 1000 | < 100 | – | 100 to 1000 | 100 to 1000 |
| C[C@@H](Nc1ncnc2[nH]c(-c3ccc(NC(=O)CCCCC(=O)NO)cc3)cc12)c1ccccc1 [Compound 26, (R) —N^1-Hydroxy-N^6-(4-(4-(1-phenylethylamino)-7H-pyrrolo[2,3-d]pyrimidin-6-yl)phenyl)adipamide] | < 100 | < 100 | – | 100 to 1000 | 100 to 1000 |
| C[C@@H](Nc1ncnc2[nH]c(-c3ccc(NC(=O)CCCCCCC(=O)NO)cc3)cc12)c1ccccc1 [Compound 27, (R)—N^1-Hydroxy-N^8-(4-(4-(1-phenylethylamino)-7H-pyrrolo[2,3-d]pyrimidin-6-yl)phenyl)octanediamide] | < 100 | < 100 | – | 100 to 1000 | 100 to 1000 |
| C[C@@H](Nc1ncnc2[nH]c(-c3ccc(C(=O)NCCNCC(=O)NO)cc3)cc12)c1ccccc1 [Compound 28, (R)—N-(2-(2-(Hydroxyamino)-2-oxoethylamino)ethyl)-4-(4-(1-phenylethylamino)-7H-pyrrolo[2,3-d]pyrimidin-6-yl)benzamide] | > 10000 | 100 to 1000 | – | 100 to 1000 | 100 to 1000 |
| C[C@@H](Nc1ncnc2[nH]c(-c3ccc(C(=O)NCCNCCC(=O)NO)cc3)cc12)c1ccccc1 [Compound 29, (R)—N-(2-(3-(Hydroxyamino)-3-oxopropylamino)ethyl)-4-(4-(1-phenylethylamino)-7H-pyrrolo[2,3-d]pyrimidin-6-yl)benzamide] | < 100 | < 100 | – | 100 to 1000 | 100 to 1000 |
| C[C@@H](Nc1ncnc2[nH]c(-c3ccc(C(=O)NCCNCCCCCC(=O)NO)cc3)cc12)c1ccccc1 [Compound 30, (R)—N-(2-(6-(Hydroxyamino)-6-oxohexylamino)ethyl)-4-(4-(1-phenylethylamino)-7H-pyrrolo[2,3-d]pyrimidin-6-yl)benzamide] | 100 to 1000 | < 100 | – | 100 to 1000 | 100 to 1000 |
| C[C@@H](Nc1ncnc2[nH]c(-c3ccc(C(=O)NCCNCCCCCCC(=O)NO)cc3)cc12)c1ccccc1 [Compound 31, (R)—N-(2-(7-(Hydroxyamino)-7-oxoheptylamino)ethyl)-4-(4-(1-phenylethylamino)-7H-pyrrolo[2,3-d]pyrimidin-6-yl)benzamide] | < 100 | < 100 | – | 100 to 1000 | 100 to 1000 |
| C[C@@H](Nc1ncnc2[nH]c(-c3ccc(CNCCCCCC(=O)NO)cc3)cc12)c1ccccc1 [Compound 32, (R)—N-hydroxy-6-(4-(4-(1-phenylethylamino)-7H-pyrrolo[2,3-d]pyrimidin-6-yl)benzylamino)hexanamide] | 100 to 1000 | < 100 | – | 100 to 1000 | 100 to 1000 |
| C[C@@H](Nc1ncnc2[nH]c(-c3ccc(CNCCCCCCC(=O)NO)cc3)cc12)c1ccccc1 [Compound 33, (R)—N-hydroxy-7-(4-(4-(1-phenylethylamino)-7H-pyrrolo[2,3-d]pyrimidin-6-yl)benzylamino)heptanamide] | < 100 | < 100 | – | 100 to 1000 | 100 to 1000 |
| O=C(CCCCCN1CCN(Cc2ccc(-c3cc4c(NCc5ccccc5)ncnc4[nH]3)cc2)CC1)NO [Compound 36] | 100 to 1000 | 100 to 1000 | – | 100 to 1000 | 100 to 1000 |
| C[C@@H](Nc1ncnc2[nH]c(-c3ccc(OCCCCCCC(=O)NO)cc3)cc12)c1ccc(F)cc1 [Compound 37] | < 100 | 100 to 1000 | – | 1000 to 10000 | 100 to 1000 |
| O=C(CCCCCCOc1ccc(-c2cc3c(NCc4ccccc4)ncnc3[nH]2)cc1)NO [Compound 38, 7-(4-(4-(benzylamino)-7H-pyrrolo[2,3-d]pyrimidin-6-yl)phenoxy)-N-hydroxyheptanamide] | < 100 | 100 to 1000 | – | 1000 to 10000 | 1000 to 10000 |
| C[C@@H](Nc1ncnc2[nH]c(-c3ccc(C(=O)NO)cc3)cc12)c1ccccc1 [Compound 39, (R)—N-hydroxy-4-(4-(1-phenylethylamino)-7H-pyrrolo[2,3-d]pyrimidin-6-yl)benzamide] | 100 to 1000 | < 100 | – | 100 to 1000 | < 100 |
| O=C(NO)c1ccc(-c2cc3c(NCc4ccccc4)ncnc3[nH]2)cc1 [Compound 40] | 100 to 1000 | < 100 | – | 1000 to 10000 | 100 to 1000 |
| C[C@@H](Nc1ncnc2[nH]c(-c3ccc(C(=O)NO)cc3)cc12)c1ccc(F)cc1 [Compound 41] | 100 to 1000 | < 100 | – | 100 to 1000 | 100 to 1000 |
| C[C@@H](Nc1ncnc2[nH]c(-c3ccc(NCc4ccc(/C=C/C(=O)NO)cc4)cc3)cc12)c1ccccc1 [Compound 42, (R,E)-N-Hydroxy-3-(4-((4-(4-(1-phenylethylamino)-7H-pyrrolo[2,3-d]pyrimidin-6-yl)phenylamino)methyl)phenyl)acrylamide] | 100 to 1000 | < 100 | – | 1000 to 10000 | 1000 to 10000 |
| C[C@@H](Nc1ncnc2[nH]c(-c3ccc(NCc4ccc(C(=O)NO)cc4)cc3)cc12)c1ccccc1 [Compound 43, (R)—N-Hydroxy-4-((4-(4-(1-phenylethylamino)-7H-pyrrolo[2,3-d]pyrimidin-6-yl)phenylamino)methyl)benzamide] | 100 to 1000 | < 100 | – | 1000 to 10000 | 100 to 1000 |
| C[C@@H](Nc1ncnc2[nH]c(-c3ccc(CNCc4ccc(C(=O)NO)cc4)cc3)cc12)c1ccccc1 [Compound 44, (R)—N-hydroxy-4-((4-(4-(1-phenylethylamino)-7H-pyrrolo[2,3-d]pyrimidin-6-yl)benzylamino)methyl)benzamide] | 100 to 1000 | < 100 | – | 100 to 1000 | 100 to 1000 |
| C[C@@H](Nc1ncnc2[nH]c(-c3ccc(OCCNCCCCCCC(=O)NO)cc3)cc12)c1ccccc1 [Compound 60, (R)—N-hydroxy-7-(2-(4-(4-(1-phenylethylamino)-7H-pyrrolo[2,3-d]pyrimidin-6-yl)phenoxy)ethylamino)heptanamide] | 100 to 1000 | < 100 | – | < 100 | < 100 |
| C[C@@H](Nc1ncnc2[nH]c(-c3ccc(NCCCCCCC(=O)NO)cc3)cc12)c1ccccc1 [Compound 67, (R)—N-hydroxy-7-(4-(4-(1-phenylethylamino)-7H-pyrrolo[2,3-d]pyrimidin-6-yl)phenylamino)heptanamide] | < 100 | < 100 | – | 100 to 1000 | < 100 |
